According to patent publication US20110105565A1, “WATER SOLUBLE SMALL MOLECULE INHIBITORS OF THE CYSTIC FIBROSIS TRANSMEMBRANE CONDUCTANCE REGULATOR” (THE REGENTS OF THE UNIVERSITY OF CALIFORNIA, priority 2008, published 2011):

Experiments:
[1] = target: T1, human wildtype CFTR (Homo sapiens, UniProt P13569); assay: Short-circuit current measurements, apical chloride current in FRT cells; assay type: cell-based; design: expressed in transfected cells; host or cells: FRT (Fisher rat thyroid) cells
T1 sequence (P13569 whole entry): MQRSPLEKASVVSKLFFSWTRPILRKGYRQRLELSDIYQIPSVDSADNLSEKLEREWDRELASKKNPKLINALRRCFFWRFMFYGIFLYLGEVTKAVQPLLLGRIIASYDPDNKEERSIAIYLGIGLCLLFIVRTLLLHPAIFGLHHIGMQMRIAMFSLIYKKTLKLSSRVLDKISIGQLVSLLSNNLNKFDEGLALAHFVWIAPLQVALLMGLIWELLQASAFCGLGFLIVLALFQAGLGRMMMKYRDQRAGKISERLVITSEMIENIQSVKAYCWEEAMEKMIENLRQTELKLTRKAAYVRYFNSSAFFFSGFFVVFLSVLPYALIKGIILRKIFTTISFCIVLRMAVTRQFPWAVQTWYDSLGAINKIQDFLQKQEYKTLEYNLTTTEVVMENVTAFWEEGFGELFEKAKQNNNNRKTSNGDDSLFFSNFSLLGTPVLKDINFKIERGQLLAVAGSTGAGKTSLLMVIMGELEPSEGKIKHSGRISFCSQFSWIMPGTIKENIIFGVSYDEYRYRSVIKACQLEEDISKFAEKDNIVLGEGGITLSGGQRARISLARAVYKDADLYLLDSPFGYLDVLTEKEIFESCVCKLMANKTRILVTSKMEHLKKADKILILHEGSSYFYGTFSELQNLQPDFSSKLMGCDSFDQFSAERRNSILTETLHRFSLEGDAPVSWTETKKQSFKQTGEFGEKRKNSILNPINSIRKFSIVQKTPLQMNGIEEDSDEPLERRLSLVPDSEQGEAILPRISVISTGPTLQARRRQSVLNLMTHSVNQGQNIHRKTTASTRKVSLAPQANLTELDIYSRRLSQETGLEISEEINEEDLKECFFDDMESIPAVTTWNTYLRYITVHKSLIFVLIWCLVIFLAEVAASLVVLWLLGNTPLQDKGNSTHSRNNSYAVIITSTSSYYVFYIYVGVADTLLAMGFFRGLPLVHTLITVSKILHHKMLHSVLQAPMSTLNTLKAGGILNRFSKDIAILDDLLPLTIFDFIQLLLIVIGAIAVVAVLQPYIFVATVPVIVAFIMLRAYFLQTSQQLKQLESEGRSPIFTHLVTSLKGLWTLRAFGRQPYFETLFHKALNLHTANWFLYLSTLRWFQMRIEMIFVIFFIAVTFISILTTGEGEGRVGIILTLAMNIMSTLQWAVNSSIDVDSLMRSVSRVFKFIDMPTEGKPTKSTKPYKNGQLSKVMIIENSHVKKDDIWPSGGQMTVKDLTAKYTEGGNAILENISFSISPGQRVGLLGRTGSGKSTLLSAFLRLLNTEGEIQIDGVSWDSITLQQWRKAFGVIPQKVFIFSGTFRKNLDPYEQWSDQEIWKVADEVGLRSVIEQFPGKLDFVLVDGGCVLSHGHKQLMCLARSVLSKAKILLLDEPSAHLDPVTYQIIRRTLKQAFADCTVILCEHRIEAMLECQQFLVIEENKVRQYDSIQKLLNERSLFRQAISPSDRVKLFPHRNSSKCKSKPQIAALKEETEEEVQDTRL
Procedure: Short-circuit current measurements. FRT cells (stably expressing human wildtype CFTR) were cultured on [sequence] filters with 1 cm^2 surface area (Corning-Costar) to resistance >1,000 Ω·cm^2 as described (see, e.g., Ma et al., J. Clin. Invest. 110:1651-1658 ((2002)); Sonawane et al., FASEB J. 20:130-132 (2006)). Filters were mounted in an Easymount Chamber System (Physiologic Instruments, San Diego). For apical current measurements, the basolateral hemichamber contained (in mM): 130 NaCl, 2.7 KCl, 1.5 KH2PO4, 1 CaCl2, 0.5 MgCl2, 10 Na-HEPES, 10 glucose (pH 7.3). The basolateral membrane was permeabilized with amphotericin B (250 μg/ml) for 30 min. In the apical solution 65 mM NaCl was replaced by sodium gluconate, and CaCl2 was increased to 2 mM. Solutions were bubbled with 95% O2/5% CO2 and maintained at 37° C. Current was recorded using a DVC-1000 voltage-clamp (World Precision Instruments) using Ag/AgCl electrodes and 1 M KCl agar bridges.
CFTR was stimulated by cAMP agonist forskolin and increasing concentration of test compounds was added.

[2] = test system: MDCK cells; assay: MDCK cell cyst model of polycystic kidney disease; assay type: cell-based, Canine; conditions: for effect on MDCK cyst enlargement (in words): 1 μM
Source text: An MDCK cell model of polycystic kidney disease was used to screen CFTR inhibitors of the thiazolidinone and glycine hydrazide classes for reducing cyst formation and expansion. […] Culture of MDCK cells in three-dimensional collagen gels produces a polarized, single-layer, thinned epithelium surrounding a fluid-filled space, apical […] microvilli, a solitary cilium, and apical tight junctions (see, e.g., McAteer et al., Scan Elect Microsc (Pt 3): 1135-1150, 1986; McAteer et al., Scanning Microsc 2: 1739-1763, 1988; and Taide et al., Eur J Clin Invest 26: 506-513, 1996).
Type I MDCK cells (ATCC No. CCL-34) were cultured at 37° C. in a humidified 95% air/5% CO2 atmosphere in a 1:1 mixture of Dulbecco's modified Eagle's medium (DMEM) and Ham's F-12 nutrient medium supplemented with 10% fetal bovine serum (Hyclone), 100 U/mL penicillin and 100 μg/mL streptomycin. To generate cysts, four hundred MDCK cells were suspended in 0.4 ml of ice-cold Minimum Essential Medium containing 2.9 mg/mL collagen (PuRECOL, Inamed Biomaterials, Fremont Calif.), 10 mM HEPES, 27 mM NaHCO3, 100 U/mL penicillin and 100 μg/mL streptomycin (pH 7.4). The cell suspension was plated onto 24-well plates. After gelation, 1.5 mL of MDCK cell medium containing 10 μM forskolin was added to each well and plates were maintained at 37° C. in a 5% CO2 humidified atmosphere.
The compound structures together with their approximate CFTR inhibition potencies (expressed as IC50 values) are provided in FIGS. 3 and 4. Indicated IC50 values for T01-07, T10, T12-14 were reported by Ma et al. (J Clin Invest 110: 1651-1658 (2002)). IC50 values for T08, T11, and T16 were determined by short-circuit analysis performed according to methods described herein. Indicated IC50 values for G01-05, G8-16 were reported by Sonawane et al. (FASEB J. 20: 130-132 (2006); Sonawane et al., Gastroenterology 132:1234-44 (2007)). IC50 values for G06 and G07 were determined by short-circuit current analysis performed according to methods described herein.
Medium containing forskolin and test compounds was changed every 12 h. At day 6, cysts (with diameters >50 μm) and non-cyst cell colonies were counted by phase-contrast light microscopy at 20× magnification (546 nm monochromatic illumination) using a Nikon TE 2000-S inverted microscope. In some experiments, compounds were added to medium in the continued presence of forskolin from day 4 after seeding and the medium containing forskolin and compounds was changed every 12 h for 8 days. Micrographs showing the same cysts in collagen gels (identified by markings on plates) were obtained every 2 days. For determination of cyst growth, cyst diameters were measured using Image J software. At least 10 cysts/well and 3 wells/group were measured for each condition.

[3] = HPLC/MS measurement of inhibitor concentration in urine after subcutaneous administration; assay type: in vivo, mouse; conditions: 4 times daily for 3 days, 5 mg/kg/day; for concentration at 1 h: 1 hour after final dosing; for concentration at 5 h: 5 hour after final dosing
Procedure: CFTR inhibitors (5-10 mg/kg/day) or saline DMSO vehicle control (0.05 mL/injection) were administrated by subcutaneous injection on the backs of neonatal mice four times a day for 3 or 7 days using a 1 cc insulin syringe, beginning at age 2 days (11 mice per group). Pkd1^flox/+; Ksp-Cre or Pkd1^flox/+ mice from the same litter were used as controls. During the treatment period, control and Pkd1^flox/−; Ksp-Cre mice, with or without CFTR inhibitor treatment, were indistinguishable in their activity and behavior. Body weight was measured at day 5 (3 days after treatment), at which time there was no difference in body weight in any of the mouse groups. Blood and urine samples were collected for measurements of CFTR inhibitor concentration and renal function. Kidneys were removed and weighed, and fixed for histological examination or homogenized for determination of CFTR inhibitor content.
For high-performance liquid chromatography/mass spectrometry (HPLC/MS) analysis of CFTR inhibitor concentration, kidneys were homogenized in 50-100 μl of PBS for 5 min using an EPPENDORF pellet pestle homogenizer. The homogenate was mixed with an equal volume of chilled acetonitrile to precipitate proteins. After centrifugation at 5000×g for 10 min the supernatant was evaporated under nitrogen, and the residue was dissolved in eluent (50% CH3CN/20 mM NH4OAc). Urine samples were directly diluted 10-fold with eluent. Reversed-phase HPLC separations were carried out using a WATERS C18 column (2.1×100 mm, 2.5 μm particle size) equipped with a solvent delivery system (WATERS model 2690, Milford, Mass.). The solvent system consisted of a linear gradient from 20% CH3CN/20 mM NH4OAc to 95% CH3CN/20 mM NH4OAc, run over 20 min, followed by 5 min at 95% CH3CN/20 mM NH4OAc (0.2 mL/min flow rate). Mass spectra were acquired on an Alliance HT 2790+ZQ mass spectrometer using negative ion detection, scanning from 150 to 1500 Da. The electrospray ion source parameters were: capillary voltage 3.2 kV (negative ion mode) or 3.5 kV (positive ion mode), cone voltage 37 V, source temperature 120° C., desolvation temperature 250° C., cone gas flow 25 L/h, and dessolvation gas flow 350 L/h.
Concentrations were measured to establish dosing to give sustained concentrations in kidney/urine of >1 μM, where CFTR is inhibited. Kidney and urine samples were obtained from mice after 4 times daily subcutaneous administration for 3 days at 5 mg/kg/day, a dose regimen determined from preliminary studies. Urinary concentrations were measured at 1 and 5 hour after the final dosing. For tetrazolo-CFTRinh-172, urine concentrations were 3.3 and 3.6 μM at 1 and 5 hour, respectively. The urine concentrations of Ph-GlyH-101 were 4.3 and 5.8 μM. […] These concentrations are several-fold greater than the IC50 for CFTR inhibition.

[4] = target: T1, human wildtype CFTR; assay: Fluorescence cell-based assay of CFTR inhibition (YFP iodide influx, FRT cells); design: expressed in transfected cells; host or cells: Fisher rat thyroid (FRT) cells; conditions: given as ranges, read-out: IC50
Procedure: CFTR inhibition by thiazolidinone derivative compounds was determined by a fluorescence cell-based assay utilizing doubly transfected cells expressing human wild-type CFTR and a yellow fluorescent protein (YFP) iodide sensor, as described (see, e.g., Galietta, et al., J. Physiol. 281:C1734-C1742 (2001)). Fisher rat thyroid (FRT) cells stably expressing wild-type human CFTR and YFP-H148Q were cultured on 96-well black-wall plates as described (see, e.g., Ma, et al., J. Clin. Invest. 110:1651-1658 (2002)). Cells in 96-well plates were washed three times, and then CFTR was activated by incubation for 15 minutes with an activating cocktail containing 10 μM forskolin, 20 μM apigenin, and 100 μM IBMX. Test compounds were added 5 minutes before assay of iodide influx in which cells were exposed to a 100 mM inwardly directed iodide gradient. YFP fluorescence was recorded for 2 seconds before and 12 seconds after creation of the iodide gradient. Initial rates of iodide influx were computed from the time course of decreasing fluorescence after the iodide gradient.
CFTR-facilitated iodide influx following extracellular iodide addition results in quenching of cytoplasmic YFP fluorescence.

[5] = values in text, forskolin-stimulated CFTR, read-out: IC50 (short-circuit current)

Compound	IC50 ([1]; Table 3, inhibition potency, read-out: IC50) [nM]	inhibition kinetics (in words) ([1]; compared with CFTRinh-172 or Oxo-172, listed as Tetrazolo-172)	inhibition of CFTR in short-circuit current analysis (in words) ([1]; increasing concentration, forskolin-stimulated)	IC50 [1, 5] [nM]	effect on MDCK cyst enlargement (in words) [2]	effect on MDCK cyst enlargement/formation (in words) ([2]; 10 μM)	inhibition at 10 µM ([2]; Canis lupus familiaris, MDCK, 10 μM, forskolin 10 μM, cyst diameter, read-out: inhibition of cyst growth) [%]	concentration at 1 h [3] [µM]	concentration at 5 h [3] [µM]	concentration at 1 h ([3]; C57BL/6, mouse, urine, sc) [µM]	concentration at 5 h ([3]; C57BL/6, mouse, urine, sc) [µM]	IC50 ([4]; Table 1, upper part, CFTR inhibitory activity) [nM]	IC50 ([4]; Table 2 summary table) [nM]
O=C1/C(=C/c2ccc(-c3nnn[nH]3)cc2)SC(=S)N1c1cccc(C(F)(F)F)c1 [Compound 6, (Z)-5-(4-(1H-tetrazol-5-yl)benzylidene)-2-thioxo-3-(3-(trifluoromethyl)phenyl)thiazolidin-4-one]	760 ± 200	slower inhibition kinetics	dose dependant inhibition	800	strongly inhibited cyst enlargement	slowed cyst enlargement	> 70	–	–	–	–	–	–
N-2-naphthalenyl-2-hydroxyethyl-[(3,5-dibromo-2,4-dihydroxyphenyl)methylene]phenylglycinehydrazide [Compound G07]	–	–	–	–	strongly inhibited cyst enlargement	–	–	4.3	5.8	–	–	–	–
O=C1/C(=C/c2ccc(-c3nn[nH]n3)cc2)SC(=S)N1c1cccc(C(F)(F)F)c1 [Compound 6, (Z)-5-(4-(1H-tetrazol-5-yl)benzylidene)-2-thioxo-3-(3-(trifluoromethyl)phenyl)thiazolidin-4-one]	–	–	–	500 to 1000	–	–	–	–	–	3.3	3.6	100 to 1000	100 to 1000
